Measurements reported in patent US20230126310A1 (priority 2020, published 2023).
Counter-ions that a name gives are not always drawn. Like-named read-outs stand apart in the source and are kept apart here.

How the values were obtained:
SARS-CoV-2 [1] = assay: microbe, parasite or virus in culture; settings: Severe acute respiratory syndrome coronavirus 2, Caco-2, 48 h; for inhibition at 10 µM: read-out: % Inh. (% Inhibition of SARS-CoV-2)
[2] = Compound cytotoxicity against CaCo-2 cells at 48 hours; format: cell-based, Human; settings: human, CaCo-2 cells; Table 5, further results of Examples 1 and 2; mean ± spread
Procedure: The cytotoxicity of the profiled compounds towards CaCo-2 cells at 48 hours was assessed. […] After 48 hours, cytotoxicity was evaluated using both digital phase contrast readout as described above and ATP determination (Cell titre-glo, Promega Corp).

SARS-CoV-2 [3] = settings: for % Inh. (% Inhibition of SARS-CoV-2): 10 µM

Compound | inhibition at 10 µM (SARS-CoV-2 [1]) | CC50 at 48 h [2] | % Inh. (% Inhibition of SARS-CoV-2) (SARS-CoV-2 [3]) | also measured
CN1CC[C@H](c2c(O)cc(O)c3c(=O)cc(-c4ccccc4Cl)oc23)[C@H](O)C1 [alvocidib] | 87.8% | 0.06 µM |  | 
C=CCNc1nc(NCC=C)nc(N2CCN(C(c3ccc(F)cc3)c3ccc(F)cc3)CC2)n1 [Almitrine dimesilate] | 93.2% | 102 ± 73.6 µM |  | IC50 (SARS-CoV-2 [1]): 1.21 µM; IC50 (SARS-CoV-2 [1]; read-out: pIC50 (converted)): 1.2 µM
Fc1ccc(-c2cncc(CN3CCN(c4cccc5c4OCCO5)CC3)c2)cc1 [Adoprazine] | 81.4% | 75.9 ± 54.2 µM |  | IC50 (SARS-CoV-2 [1]): 23.4 µM; IC50 (SARS-CoV-2 [1]; read-out: pIC50 (converted)): 23.4 µM
CCOc1ccc(Cc2nccc3cc(OCC)c(OCC)cc23)cc1OCC [ETHAVERINE HYDROCHLORIDE] | 85% | 11 ± 1.07 µM |  | IC50 (SARS-CoV-2 [1]): 0.54 µM; IC50 (SARS-CoV-2 [1]; read-out: pIC50 (converted)): 0.537 µM
CNC(=O)c1cc(Oc2ccc(NC(=O)Nc3ccc(Cl)c(C(F)(F)F)c3)cc2)ccn1 [Sorafenib Tosylate] | 78.7% | 1.17 ± 0.43 µM |  | IC50 (SARS-CoV-2 [1]): 1.21 µM; IC50 (SARS-CoV-2 [1]; read-out: pIC50 (converted)): 1.2 µM
C[C@@H](c1nc(-c2ccc(C#N)cc2)cs1)[C@](O)(Cn1cncn1)c1ccc(F)cc1F [ravuconazole] | 103% | 12.8 ± 0.84 µM |  | IC50 (SARS-CoV-2 [1]): 2 µM; IC50 (SARS-CoV-2 [1]; read-out: pIC50 (converted)): 2 µM
NC(=O)N1CCC(CC(=O)N2CCC([C@H]3c4ncc(Br)cc4CCc4cc(Cl)cc(Br)c43)CC2)CC1 [Lonafarnib (SCH66336), Lonafarnib] |  | 10.7 ± 7.39 µM |  | 
O=C(Nc1nc(-c2cc(Cl)cs2)c(N2CCN(C3CCCCC3)CC2)s1)c1cnc(N2CCC(C(=O)O)CC2)c(Cl)c1 [Avatrombopag] | 95.9% | 20.9 ± 29.5 µM |  | IC50 (SARS-CoV-2 [1]): 7.17 µM; IC50 (SARS-CoV-2 [1]; read-out: pIC50 (converted)): 7.24 µM
CC[C@@H]([C@H](C)O)n1ncn(-c2ccc(N3CCN(c4ccc(OC[C@@H]5CO[C@@](Cn6cncn6)(c6ccc(F)cc6F)C5)cc4)CC3)cc2)c1=O [Posaconazole] |  | 14.6 ± 0.67 µM |  | IC50 (SARS-CoV-2 [1]): 2.37 µM; IC50 (SARS-CoV-2 [1]; read-out: pIC50 (converted)): 2.34 µM
CNC(=O)c1ccc(C)c(-n2c(C)cc(OCc3ccc(F)cc3F)c(Br)c2=O)c1 [PH-797804] | 81.5% | 20 ± 3.1 µM |  | IC50 (SARS-CoV-2 [1]): 20.7 µM; IC50 (SARS-CoV-2 [1]; read-out: pIC50 (converted)): 20.4 µM
Cc1nc2ccccc2n1Cc1ccc(Cl)cc1 [CHLORMIDAZOLE] |  | 0.88 ± 0.82 µM |  | IC50 (SARS-CoV-2 [1]): > 1 µM
CCOc1ccc(/C=C2\NCCc3cc(OCC)c(OCC)cc32)cc1OCC [drotaverine] | 93.1% | 9 ± 0.96 µM |  | 
CC(C)c1cc(C(C)C)c(CC(=O)NS(=O)(=O)Oc2c(C(C)C)cccc2C(C)C)c(C(C)C)c1 [Avasimibe (CI-1011), Avasimibe] | 91.4% | 13.7 ± 6.18 µM |  | IC50 (SARS-CoV-2 [1]): 10.9 µM; IC50 (SARS-CoV-2 [1]; read-out: pIC50 (converted)): 11 µM
Fc1ccc(C(c2ccc(F)cc2)N2CCN(C/C=C/c3ccccc3)CC2)cc1 [flunarizine] | 79.1% | 137 ± 72.3 µM |  | 
O=c1ccc2ccc(OCCCCN3CCN(c4cccc5sccc45)CC3)cc2[nH]1 [Brexpiprazole] | 84.8% | 50.6 ± 68.7 µM |  | IC50 (SARS-CoV-2 [1]): 22.9 µM; IC50 (SARS-CoV-2 [1]; read-out: pIC50 (converted)): 22.9 µM
S=C(NCc1ccc2c(c1)OCO2)N1CCN(c2ncnc3c2oc2ccccc23)CC1 [Amuvatinib (MP-470), Amuvatinib] |  | 0.06 ± 0.01 µM |  | IC50 (SARS-CoV-2 [1]; read-out: pIC50 (converted)): 0.0302 µM
Cc1cccc(C)c1OCC(=O)N[C@@H](Cc1ccccc1)[C@@H](O)C[C@H](Cc1ccccc1)NC(=O)[C@H](C(C)C)N1CCCNC1=O [Lopinavir (ABT-378), Lopinavir] | 56.6% | 2130 ± 3590 µM |  | 
CCOC(=O)O[C@]1(C(=O)OCCl)CC[C@H]2[C@@H]3CCC4=CC(=O)C=C[C@]4(C)[C@H]3[C@@H](O)C[C@@]21C [Loteprednol etabonate] | 102% | 49 ± 45.9 µM |  | IC50 (SARS-CoV-2 [1]): 21.3 µM; IC50 (SARS-CoV-2 [1]; read-out: pIC50 (converted)): 21.4 µM
CC(C)(C)Cn1c(N)nc2ccc(-c3[nH]c(C(C)(C)C)nc3-c3ccc(F)cc3)nc21 [LY2228820, Ralimetinib] | 112% | 56.2 ± 9.79 µM |  | 
Cn1c(C#N)ccc1-c1ccc2c(c1)C(C)(C)OC(=S)N2 [Tanaproget] | 96.2% |  |  | IC50 (SARS-CoV-2 [3]): 1.13 µM; IC50 (SARS-CoV-2 [1]): > 1 µM; IC50 (SARS-CoV-2 [1]; read-out: pIC50 (converted)): 1.12 µM
COc1cc(/C=C2\CCCN([C@@H](C)c3ccc(F)cc3)C2=O)ccc1-n1cnc(C)c1 [E 2012] |  |  | 100.8% | 
c1ccc(C(NCc2cccnc2)(c2ccccc2)c2ccccc2)cc1 [UCL-2077] |  |  | 70.7% | 
N#CC(=C(N)Sc1ccc(N)cc1)c1ccccc1C(F)(F)F [MEK1-2-inhibitor] |  |  | 66.9% | 

Compound | inhibition at 10 µM (SARS-CoV-2 [1]) | CC50 at 48 h [2] | % Inh. (% Inhibition of SARS-CoV-2) (SARS-CoV-2 [3]) | also measured
C=CC(=O)Nc1ccc2ncnc(Nc3cccc(Br)c3)c2c1 [PD168393] |  |  | 51.5% | 
CCOc1cc(C(=O)Nc2ccc(Cl)c(-c3nc4ccccc4[nH]3)c2)cc(OCC)c1OCC [SANT-2] |  |  | 84.1% | 
COc1ccc(S(=O)(=O)N(CCO)c2ccccc2CN(C)C/C=C/c2ccc(Cl)cc2)cc1 [KN-93] |  |  | 88.4% | 
C[n+]1c2cc(N)ccc2cc2ccc(N)cc21.[Cl-] [ACRIFLAVINIUM HYDROCHLORIDE] |  |  |  | % Inh. (% Inhibition of SARS-CoV-2) (SARS-CoV-2 [3]; HYDROCHLORIDE): 99.5%; % Inh. (% Inhibition of SARS-CoV-2) (SARS-CoV-2 [3]; listed as Acriflavine hydrochloride, HYDROCHLORIDE): 69.4%
NC(CO)(CO)CO.Nc1nccc(Oc2ccc(NC(=O)c3cn(COP(=O)(O)O)cc(-c4ccc(F)cc4)c3=O)cc2F)c1Cl [SCR-1481B1] |  |  | 89.3% | 
CCN(CC)CC1CCN(c2ncc3ncnc(Nc4ccc(F)c(Cl)c4)c3n2)CC1.Cl.Cl [BIBU-1361] |  |  | 78.5% | 
CCCCC1CCC(c2nc(-c3ccncc3)no2)CC1 (centres unmarked) [PSN-375963] |  |  | 83.9% | 
Cc1ncc(-c2ccnc(Nc3ccc(S(C)(=O)=O)cc3)n2)n1C(C)C [AZD5438] |  |  | 67.2% | 
OC12C3C4CC5C6C4C1C6C(C53)N2CCc1cccc(F)c1 (centres unmarked) [TC1] |  |  | 53.2% | 
O=S(=O)(c1cccc2c(Cl)cccc12)N1CCCNCC1 [ML-9] |  |  | 91.9% | 
Lasofoxifene (Tartrate) |  |  | 54.3% | 
CC[C@@]1(O)C(=O)OCc2c1cc1n(c2=O)Cc2cc3c(N)cccc3nc2-1 [9-aminocamptothecin] |  |  | 80.3% | 
c1ccc(CCCCN2CCC(c3ccccc3)CC2)cc1 [4-PPBP] |  |  | 63.1% | 
CC(C)(Cc1c[nH]c2ccc(Cl)cc12)NCCOc1ccccc1OCC1CC1 [RS-17053] |  |  | 103.3% | 
COC(=O)Nc1ccc(-c2nc(N3CCOCC3)c3cnn(C4CCN(Cc5cccnc5)CC4)c3n2)cc1 [WYE-687] |  |  | 105.8% | 
Tocofersolan |  |  | 95.2% | 
CC(C)(C)c1cc(O)c(C(C)(C)C)cc1O [BHQ] |  |  | 50.6% | 
CCOc1ccc(Nc2nc(-c3c(C)nc4ccccn34)cs2)cc1 [JK-184] |  |  | 65.2% | 
TC-I-2014 |  |  | 97.8% | 
CC(C)CNc1ccnc(NCc2csc(-c3ccccc3)n2)n1 [KHS-101] |  |  | 91.2% | 
c1cc2c(cc1C1CCCCC1)c1c3n2CCNC3CCC1 (centres unmarked) [tetrindole] |  |  | 75.2% | 
Cc1cc(/C=C2\SC(=O)N(c3ccccc3)C2=O)c(C)n1-c1cccnc1 [iCRT-14] |  |  | 82.5% | 
COc1cc(Br)c(Nc2nc(-c3c(C)nc4ncccn34)cs2)c(Br)c1 [PTC-209] |  |  | 103.6% | 
